Test results: US20240252581A1, “COMPOSITIONS AND METHODS FOR TREATING RESPIRATORY DISTRESS” (S.I.S. SHULOV INNOVATIVE SCIENCE LTD., priority 2021, published 2024)
Values joined by “and” are separate entries in the source; they are usually repeats but may differ in a detail not shown here. Equal values may be shown once. “Also recorded” adds a separate entry of the source. Square brackets hold non-standard residues; d marks the D form. Peptide text beside a SMILES is read from it. * marks the point of attachment. pGlu = O=C1CC[C@@H](C(=O)O)N1; Octanoyl = CCCCCCCC(=O)*

What was measured:
[1] = Toxicity of ZEP3Na in intratracheal administration, daily for 14 days; assay type: in vivo, rats
Method: The toxicological effect of ZEP3Na administered intratracheally to rats was evaluated. Doses of 0.5, 1.0, and 2.5 mg ZEP3Na dissolved in saline were administered daily into the lungs for a period of 14 days. On day 15, necroscopy and histology of brain, heart, thymus, lungs, spleen, liver, kidneys, and gonads were performed. In addition, blood cell counts and chemistry parameters were counted. Also, the cell distribution (%) of the bronchial alveolar lavage fluid (BALF) was determined by FACS instrumentation for B cells, T cells, neutrophils, and macrophages.

ACE2 mRNA = experiment: Relative ACE2 mRNA expression in lung tissue (real-time quantitative PCR); assay type: in vivo, mouse; settings: in relation to rplO gene
Method: (§1) In order to test the efficacy of ZEP3 sodium on lung inflammation, the lipopolysaccharide (LPS)-induced acute lung injury model was used. In particular, LPS was administered intratracheally at doses of 10 or 40 mg/kg body weight (BW) corresponding to 0.2 or 0.8 mg/mouse, respectively.
Relative ACE2 mRNA expression in lung tissue was determined as follows: mRNA was extracted from lung tissues, real-time quantitative PCR was employed, and expression of ACE2 gene in relation to rplO gene was measured.

[2] = tested on: B cells, T cells, eosinophils, neutrophils, macrophages/dendritic cells in BALF; experiment: LPS-induced acute lung injury / ARDS mouse model: BALF differential cell count by FACS; assay type: in vivo, BALB/c mice; parameters: key to Macrophages / B cells / T cells / Eosinophils / Neutrophils: (+) indicates activation; (−) indicates inhibition; settings: for B cells (%) / Eosinophils (%) / Macrophages & dendritic cells (%) / Neutrophils (%) / T cells (%) / Eosinophils / Macrophages / B cells / Neutrophils / T cells: BALF
Method: as §1
ZEP3 sodium was administered by inhalation (INH) at doses of 25 or 250 mg/kg BW (0.5 or 5 mg/mouse, respectively), or intratracheally (IT) at doses of 5 or 20 mg/kg BW (0.1 or 0.4 mg/mouse, respectively) 6 hours after LPS administration and its effect was measured 72 hours following administration in the branchial alveolar fluid (BALF) using FACS instrumentation. […]

[3] = rats, 0.5, 1.0, and 2.5 mg intratracheally daily for 14 days
[4] = Group 2: ZEP3Na 0.1 mg IT, no LPS, group mean
[5] = Group 2: ZEP3Na 0.1 mg IT, no LPS, individual mice
[6] = Group 3: ZEP3Na 0.4 mg IT, no LPS, group mean
[7] = Group 3: ZEP3Na 0.4 mg IT, no LPS, individual mice
[8] = Group 4: LPS 0.8 mg + ZEP3Na 0.1 mg IT, group mean
[9] = Group 4: LPS 0.8 mg + ZEP3Na 0.1 mg IT, individual mice
[10] = Group 5: LPS 0.8 mg + ZEP3Na 0.4 mg IT, group mean
[11] = Group 5: LPS 0.8 mg + ZEP3Na 0.4 mg IT, individual mice
[12] = Group 8: LPS 0.2 mg + ZEP3Na 0.1 mg IT, group mean
[13] = Group 8: LPS 0.2 mg + ZEP3Na 0.1 mg IT, individual mice
[14] = Group 9: LPS 0.2 mg + ZEP3Na 0.4 mg IT, group mean
[15] = Group 9: LPS 0.2 mg + ZEP3Na 0.4 mg IT, individual mice
[16] = LPS 0.2 mg + ZEP3Na (IT) 0.1 mg
[17] = LPS 0.2 mg + ZEP3Na (IT) 0.4 mg
[18] = LPS 0.8 mg + ZEP3Na (INH) 0.5 mg
[19] = administered by inhalation following LPS instillation
[20] = administered intratracheally following LPS instillation

## CCCCCCCC(=O)NCCCC[C@H](NC(=O)[C@H](Cc1c[nH]c2ccccc12)NC(=O)[C@H](CC(N)=O)NC(=O)[C@@H]1CCC(=O)N1)C(=O)O [ZEP3Na, pGlu-Asn-Trp-Lys(Octanoyl)-ONa] ([pGlu]NWK(Octanoyl)-OH)
[1]; [3]
  blood counts and chemistry: comparable to the reference items
  body weight: remained similar to that of the control group
  mortality or abnormal signs of behavior: No mortality or abnormal signs of behavior
[1]; rats, 0.5, 1.0, and 2.5 mg intratracheally daily for 14 days, FACS
  distribution of B cells, T cells, neutrophils, and macrophages in BALF: No changes
[1]; rats, day 15, brain, heart, thymus, lungs, spleen, liver, kidneys, gonads
  necroscopy and histology of the inspected organs: no pathological changes
[1]; rats, intratracheal, up to 2.5 mg daily for 14 days
  adverse effects in all parameters tested: did not result in any detectable adverse effects
ACE2 mRNA; LPS 0.2 mg + ZEP3 Na 0.1 mg
  Relative ACE2 mRNA expression (Mean ± SEM): 0.672 ± 0.145
ACE2 mRNA; LPS 0.2 mg + ZEP3 Na 0.4 mg
  Relative ACE2 mRNA expression (Mean ± SEM): 1.239 ± 0.132
ACE2 mRNA; LPS 0.8 mg + ZEP3 Na 0.1 mg
  Relative ACE2 mRNA expression (Mean ± SEM): 0.223 ± 0.031
ACE2 mRNA; LPS 0.8 mg + ZEP3 Na 0.1 mg, listed as ZEP3 sodium
  Relative ACE2 mRNA expression (Mean ± SEM): 0.22
ACE2 mRNA; LPS 0.8 mg + ZEP3 Na 0.4 mg
  Relative ACE2 mRNA expression (Mean ± SEM): 0.805 ± 0.251
ACE2 mRNA; ZEP3 Na 0.1 mg, no LPS
  Relative ACE2 mRNA expression (Mean ± SEM): 1.750 ± 0.320
ACE2 mRNA; ZEP3 Na 0.4 mg, no LPS
  Relative ACE2 mRNA expression (Mean ± SEM): 0.303 ± 0.025
[2]; 0.2 mg LPS, ZEP3Na 0.1 and 0.4 mg, compared to untreated mice that received 0.2 mg LPS
  bronchoalveolar eosinophils percentage: significant decrease; also recorded: significantly inhibited
[2]; [4]
  B cells (%): 0.163%
  Eosinophils (%): 0.412%
  Macrophages & dendritic cells (%): 66.715%
  Neutrophils (%): 6.816%
  T cells (%): 3.078%
[2]; [5]
  B cells (%): 0.320% and 0.208% and 0.091% and 0.218% and 0.150% and 0.089% and 0.103% and 0.162% and 0.147% and 0.138%
  Eosinophils (%): 0.192% and 0.556% and 0.185% and 0.196% and 0.692% and 0.058% and 0.261% and 0.828% and 0.606% and 0.546%
  Macrophages & dendritic cells (%): 69.267% and 65.626% and 66.568% and 65.527% and 65.957% and 70.380% and 68.287% and 64.068% and 65.131% and 66.345%
  Neutrophils (%): 8.302% and 7.056% and 4.882% and 7.770% and 5.279% and 3.207% and 3.871% and 12.158% and 8.592% and 7.044%
  T cells (%): 3.447% and 3.524% and 4.627% and 2.747% and 2.636% and 1.788% and 2.856% and 2.681% and 3.118% and 3.354%
[2]; [6]
  B cells (%): 0.176%
  Eosinophils (%): 0.277%
  Macrophages & dendritic cells (%): 72.219%
  Neutrophils (%): 4.248%
  T cells (%): 1.983%
[2]; [7]
  B cells (%): 0.310% and 0.225% and 0.162% and 0.154% and 0.106% and 0.100% and 0.160% and 0.223% and 0.144%
  Eosinophils (%): 0.151% and 0.400% and 0.136% and 0.176% and 0.138% and 0.390% and 0.192% and 0.540% and 0.366%
  Macrophages & dendritic cells (%): 72.760% and 67.646% and 73.862% and 72.372% and 77.634% and 73.286% and 72.368% and 67.355% and 72.688%
  Neutrophils (%): 3.325% and 7.965% and 2.600% and 3.496% and 2.405% and 3.740% and 3.111% and 7.438% and 4.152%
  T cells (%): 2.519% and 3.322% and 1.247% and 1.675% and 1.513% and 1.348% and 1.817% and 2.755% and 1.654%
[2]; [8]
  B cells (%): 0.164%
  Eosinophils (%): 0.833%
  Macrophages & dendritic cells (%): 20.180%
  Neutrophils (%): 59.048%
  T cells (%): 2.194%
[2]; [9]
  B cells (%): 0.118% and 0.102% and 0.048% and 0.030% and 0.045% and 0.489% and 0.052% and 0.572% and 0.017%
  Eosinophils (%): 0.170% and 0.064% and 1.024% and 0.755% and 0.646% and 3.005% and 0.568% and 0.840% and 0.425%
  Macrophages & dendritic cells (%): 71.986% and 72.475% and 1.316% and 0.956% and 1.424% and 16.916% and 1.107% and 14.732% and 0.713%
  Neutrophils (%): 6.007% and 2.454% and 77.259% and 86.115% and 82.630% and 57.391% and 82.523% and 54.903% and 82.147%
  T cells (%): 0.991% and 1.527% and 0.804% and 0.573% and 0.865% and 5.340% and 0.937% and 8.033% and 0.675%
[2]; [10]
  B cells (%): 0.054%
  Eosinophils (%): 0.475%
  Macrophages & dendritic cells (%): 12.756%
  Neutrophils (%): 67.517%
  T cells (%): 0.895%
[2]; [11]
  B cells (%): 0.014% and 0.011% and 0.028% and 0.024% and 0.167% and 0.138% and 0.026% and 0.022%
  Eosinophils (%): 0.303% and 0.448% and 0.323% and 0.298% and 1.427% and 0.195% and 0.530% and 0.280%
  Macrophages & dendritic cells (%): 0.470% and 0.297% and 0.271% and 0.442% and 30.597% and 68.407% and 0.798% and 0.764%
  Neutrophils (%): 77.586% and 88.700% and 84.629% and 80.400% and 39.818% and 3.154% and 84.929% and 80.922%
  T cells (%): 0.383% and 0.495% and 0.512% and 0.577% and 1.800% and 2.098% and 0.609% and 0.685%
[2]; [12]
  B cells (%): 0.097%
  Eosinophils (%): 0.210%
  Macrophages & dendritic cells (%): 2.327%
  Neutrophils (%): 79.428%
  T cells (%): 1.662%
[2]; [13]
  B cells (%): 0.040% and 0.064% and 0.259% and 0.230% and 0.080% and 0.054% and 0.069% and 0.053% and 0.045% and 0.075%
  Eosinophils (%): 0.247% and 0.204% and 0.223% and 0.251% and 0.143% and 0.176% and 0.180% and 0.265% and 0.225% and 0.192%
  Macrophages & dendritic cells (%): 2.218% and 1.674% and 5.674% and 2.257% and 0.618% and 1.800% and 1.175% and 5.084% and 1.252% and 1.516%
  Neutrophils (%): 84.112% and 84.283% and 69.683% and 74.854% and 81.436% and 79.270% and 71.074% and 80.725% and 85.962% and 82.883%
  T cells (%): 0.940% and 0.742% and 5.066% and 3.187% and 1.024% and 1.045% and 1.327% and 0.892% and 1.131% and 1.271%
[2]; [14]
  B cells (%): 0.092%
  Eosinophils (%): 0.270%
  Macrophages & dendritic cells (%): 24.471%
  Neutrophils (%): 55.279%
  T cells (%): 1.175%
[2]; [15]
  B cells (%): 0.045% and 0.054% and 0.029% and 0.019% and 0.100% and 0.153% and 0.286% and 0.103% and 0.037%
  Eosinophils (%): 0.243% and 0.159% and 0.151% and 0.192% and 0.238% and 0.345% and 0.577% and 0.237% and 0.288%
  Macrophages & dendritic cells (%): 4.399% and 1.327% and 0.529% and 0.437% and 1.661% and 60.592% and 75.765% and 73.903% and 1.626%
  Neutrophils (%): 77.353% and 85.551% and 87.483% and 77.212% and 72.881% and 9.005% and 3.108% and 3.716% and 81.207%
  T cells (%): 1.035% and 0.833% and 0.582% and 0.685% and 1.665% and 2.779% and 0.977% and 1.174% and 0.843%
[2]; [16]
  Eosinophils: −
  Macrophages: +
[2]; [17]
  Eosinophils: −
  Macrophages: +
[2]; [18]
  B cells: +
  Eosinophils: −
  Macrophages: +
  Neutrophils: −
  T cells: −
[2]; LPS 0.8 mg + ZEP3Na (INH) 5 mg
  B cells: +
  Eosinophils: −
  Macrophages: +
  Neutrophils: −
  T cells: −
[2]; [19]
  levels of T cells, eosinophils, neutrophils: significantly inhibited the expression and reduced the levels
  levels of macrophages and B cells: increased the levels
[2]; [20]
  levels of eosinophils: significantly inhibited the expression and reduced the levels
  levels of macrophages: increased the levels
